From ChEMBL document CHEMBL2177041, “Identification of new potent GPR119 agonists by combining virtual screening and combinatorial chemistry” (J Med Chem, 2012)

Experiments:
[1] = biological target: T1, Glucose-dependent insulinotropic receptor (Homo sapiens) (UniProt Q8TDV5); test: Intrinsic activity at human GPR119 expressed in MIN6 cells assessed as intracellular cAMP level after 45 mins by ALPHAscreen cAMP assay relative to N-(4-methanesulfonylphenyl)-5-nitro-6-[4-(phenylsulfanyl)piperidin-1-yl]pyrimidin-4-amine; assay type: functional, cell-based
T1 sequence (whole entry): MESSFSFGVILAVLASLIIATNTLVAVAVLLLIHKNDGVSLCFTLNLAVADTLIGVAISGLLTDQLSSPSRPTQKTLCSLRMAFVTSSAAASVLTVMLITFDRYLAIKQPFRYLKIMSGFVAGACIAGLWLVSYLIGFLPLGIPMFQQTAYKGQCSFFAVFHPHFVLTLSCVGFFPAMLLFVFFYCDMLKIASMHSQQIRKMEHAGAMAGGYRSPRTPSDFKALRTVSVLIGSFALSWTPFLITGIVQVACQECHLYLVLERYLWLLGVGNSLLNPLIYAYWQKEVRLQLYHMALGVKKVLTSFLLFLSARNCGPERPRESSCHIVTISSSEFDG

[2] = biological target: T2, Glucose-dependent insulinotropic receptor (Homo sapiens, UniProt Q8TDV5); test: Agonist activity at human GPR119 expressed in MIN6 cells assessed as intracellular cAMP level after 45 mins by ALPHAscreen cAMP assay; assay type: functional, cell-based
T2 sequence (Q8TDV5 whole entry): T1 sequence (whole entry)

Intrinsic activity [1] [%] | EC50 [2] [nM] | Compound
160 | 21 | C[S+]([O-])c1cc(F)c(NC(=O)C2=NOC3(CCN(c4nc(-c5ccccc5)no4)CC3)C2)cc1F (stereo not drawn)
170 | 93 | CC(C)(C)OC(=O)N1CCC2(CC1)CC(C(=O)Nc1cc(F)c(C#N)cc1F)=NO2
173 | 30 | N#Cc1cc(F)c(NC(=O)C2=NOC3(CCN(c4nc(-c5ccccc5)no4)CC3)C2)cc1F
165 | 800 | CC(C)(C)OC(=O)N1CCC2(CCN(C(=O)Nc3ccc(S(C)(=O)=O)cc3Br)CC2)CC1
